Test results from patent US12404303B2, “Polypeptide and use thereof” (NANJING ANJI BIOLOGICAL TECHNOLOGY CO., LTD., priority 2019, dated 2025).
No end group written: not given here.

How the values were obtained:
mycoplasma pneumoniae = experiment: Mouse pneumonia model, mycoplasma pneumonia; format: in vivo, BALB/C mice; conditions: average values±standard deviation
Excerpt: (§1) A mouse pneumonia model was successfully established by using a nasal drip method. BALB/C mice with a body weight of 18-24 g were selected, and then anesthetized with ether on day 0, day 1 and day 2, respectively, prepared streptococcus pneumoniae bacteria solution, adenovirus concentrated solution, mycoplasma pneumoniae, chlamydia pneumoniae, protozoa and pneumonia fungi were slowly dropped into the nasal cavity of the mice, so that the bacteria solutions entered the trachea and bronchi, and the bacteria solutions were prevented from flowing into the esophagus during the operation to avoid inactivation of the bacteria solutions, so that the mouse pneumonia model was established. After the model was successfully established, the polypeptide according to the present disclosure was administered, as shown in FIG. 7 and Table 9. […] The experimental results are represented on the basis of average values±standard deviation.

skin fibrosis model mice = experiment: Skin fibrosis model induced by bleomycin, HYP in skin tissue; format: in vivo, C57/BL black mice; conditions: skin tissue of the mouse back; 10 mg/kg subcutaneous twice a day, 28 days, vs model group; FIG. 6
Experimental: Bleomycin (10 μg/mL) was injected subcutaneously every day for 28 days to form skin fibrosis. During the modeling period, the administration groups were given polypeptide drugs every day for treatment, with 10 mice in each group. After modeling, the mice were killed on the next day, and the skin tissue of the mouse back was taken to detect the content of HYP in the skin tissue. [table]

chlamydia pneumoniae = experiment: Mouse pneumonia model, chlamydia pneumonia; format: in vivo, BALB/C mice; conditions: average values±standard deviation
Excerpt: as §1

adenovirus = experiment: Mouse pneumonia model, viral pneumonia; format: in vivo, BALB/C mice; conditions: average values±standard deviation
Excerpt: as §1

[1] = test system: cardiac fibroblasts of rats; experiment: Proliferation of cardiac fibroblasts of rats (MTT, in vitro myocardial fibrosis model); format: cell-based; conditions: 1 μmol/L
Experimental: The inhibitory effect of a polypeptide on cardiac fibroblasts of rats was detected by MTT assay. Cells were cultured in a DMEM medium containing 10% of FBS, the cytoplasm was made into 1×10^5/mL cell suspension, and 100 μL per well was inoculated into a 96-well plate. After the cells adhered to the wall, the medium was replaced with a serum-free DMEM medium, and the serum-free medium was discarded after 24 hours. The cells were cultured with different polypeptides of 1 μmol/L, and 5 multiple wells were set for each concentration. After 12, 24 and 48 hours separately, 10 μL of MTT was added to each well. After 4 hours, MTT was sucked out, and 150 μL of DMSO was added to each well. After reaction for 5 min, an OD value was measured at 570 nm by a microplate reader.

streptococcus pneumoniae = experiment: Mouse pneumonia model, bacterial pneumonia; format: in vivo, BALB/C mice; conditions: average values±standard deviation
Excerpt: as §1

[2] = test system: SD rats with bleomycin-induced pulmonary fibrosis; experiment: Bleomycin-induced pulmonary fibrosis animal model; format: in vivo; conditions: bleomycin 5 mg/kg intratracheal, polypeptides 7.5 mg/kg subcutaneous twice a day, positive drug 25 mg/kg intragastric once a day, 14 days
Experimental: SD rats were anesthetized by intraperitoneal injection of 1 mL/100 g 4% chloral hydrate. After anesthesia, the rats were fixed and their necks were disinfected by using cotton with 75% alcohol. The skin of the rat neck was longitudinally cut with scissors, and the fascia and muscle were longitudinally bluntly torn with tweezers to expose the trachea. A syringe was inserted into the trachea to inject 5 mg/kg bleomycin, while a blank group was injected with an equal amount of normal saline. Then a rat plate was quickly erected and rotated, the rats' breathing was observed, the neck wound was sterilized after rotation and was sewn, and an amoxicillin anti-inflammatory drug was sprinkled on the suture. After the operation, the rats were put back into a dry and clean cage for resting, waiting was performed for awakening. The rats were awakened after about 1-2 hours, and then fed normally. On the 7th day after modeling, modeling group animals randomly fell into a model group, a Nintedanib positive drug group, polypeptide I, II, III and IV dosage groups, and a normal control group, and the groups were administered separately for an administration cycle of 14 days. Living situations of rats were observed every day and their weights were weighed.

protozoa = experiment: Mouse pneumonia model, protozoal pneumonia; format: in vivo, BALB/C mice; conditions: average values±standard deviation
Excerpt: as §1

pulmonary infections = experiment: Mouse pneumonia model, pneumonia caused by pulmonary infections; format: in vivo, BALB/C mice; conditions: average values±standard deviation
Excerpt: as §1

LX-2 cells = experiment: Proliferation of LX-2 cells induced by TGF-β1 (MTT, in vitro hepatic fibrosis model); format: cell-based; conditions: polypeptide 1 μmol/L, TGF-β1 10 ng/mL, 48 hours
Experimental: LX-2 cells were cultured in 1640 medium containing 10% FBS, and cultured in an incubator with 5% CO2 at 37° C. The medium was replaced every two days, and subcultured according to the cell density. The LX-2 cells in a logarithmic growth phase were digested with 0.25% pancreatin to make cell suspension. The density of the cells was adjusted to 4×10^5 cells/mL, and the cells were inoculated into 96-well plates with 100 μL per well and cultured overnight. On the second day, TGF-β1 was added to induce the proliferation and activation of the LX-2 cells, and the polypeptide drugs were administrated at 1 μmol/L. TGF-β1 (10 ng/mL) was added to each group except the blank group. The cells were cultured in the incubator for 48 hours, and then 10 μL of MTT was added to each well. The MTT was removed after 4 hours, and 150 μL of DMSO was added for reaction for 5 min. An OD value was measured by a microplate reader at 570 nm.

pneumonia fungi = experiment: Mouse pneumonia model, fungal pneumonia; format: in vivo, BALB/C mice; conditions: average values±standard deviation
Excerpt: as §1

[3] = test system: SD rats with renal fibrosis; experiment: Renal fibrosis animal model (ureter ligation), TGF-β1 in serum; format: in vivo; conditions: 7.5 mg/kg subcutaneous twice a day, 14 days, vs model group; FIG. 4
Experimental: A renal fibrosis animal model was established. SD rats were anesthetized with 4% chloral hydrate, injected with 1 mL/100 g intraperitoneally, fixed to an operation board, and sterilized in an operation area for later use. […] Muscular layers and abdominal walls were sewed layer by layer, the suture was disinfected with alcohol. After SD rats woke up, the rats were put into a cage for feeding. In the blank group, ureter was not ligated, and other steps were the same. Then, the animals fell into a blank group, a model group, and polypeptide administration groups, and the administration was started on the second day after the operation, twice a day for 14 days. After administration for 14 days, blood was taken and supernatant was taken to detect the content of TGF-β1 in serum. [table]

myelofibrosis model mice = experiment: Myelofibrosis model induced by rh EPO; format: in vivo, Kunming mice; set-up: WBC / Hb / MCV / RDW: unit not given here; conditions: 10 mg/kg subcutaneous twice a day, 28 days
Experimental: There were 10 mice in each group. The normal control group was injected with normal saline (0.3 mL for each mouse), and the remaining groups were injected with rh EPO (0.1 unit/gram, body weight, 0.3 mL for each mouse) intraperitoneally every day. After induction for two days, drug therapy was started, subcutaneous injection was given twice a day, and after continuous administration for 28 days, the mouse heart was punctured for blood extraction, some blood was used for peripheral blood analysis, some blood was centrifuged, and the supernatant was taken to measure the content of TGF-β1 in the serum of mice. [table]

## RGADRAGGGGPRCYRGE [Polypeptide III]
Mycoplasma pneumoniae
  Inhibitory effect on pulmonary infections, Mycoplasma pneumonia: 43.93 ± 5.34
Skin fibrosis model mice
  expression of HYP in the skin tissue: highly significantly different from the model group (*P<0.05)
Chlamydia pneumoniae
  Inhibitory effect on pulmonary infections, Chlamydia pneumonia: 54.40 ± 5.41
adenovirus
  Inhibitory effect on pulmonary infections, Viral pneumonia: 65.49 ± 9.94
[1]; 12 hours, MTT, 570 nm
  Optical density values, 12 hours: 0.329 ± 0.012
[1]; 24 hours, MTT, 570 nm
  Optical density values, 24 hours: 0.402 ± 0.012
[1]; 48 hours, MTT, 570 nm
  Optical density values, 48 hours: 0.612 ± 0.018
[1]; at 24 hours and 48 hours
  inhibition of the proliferation of cardiac fibroblasts of rats: could inhibit the proliferation
Streptococcus pneumoniae
  Inhibitory effect on pulmonary infections, Bacterial pneumonia: 42.29 ± 8.76
[2]
  Survival rate (%): 78.6%
protozoa
  Inhibitory effect on pulmonary infections, Protozoal pneumonia: 64.29 ± 8.07
Pulmonary infections
  Inhibitory effect on pulmonary infections, Pneumonia caused by pulmonary infections: 56.18 ± 3.31
LX-2 cells
  inhibition of proliferation and activation of LX-2 cells, difference from model group: significantly different from the model group (*P<0.05)
LX-2 cells; MTT, 570 nm
  OD value: 0.63 ± 0.03
Pneumonia fungi
  Inhibitory effect on pulmonary infections, Fungal pneumonia: 62.88 ± 5.49
[3]
  content of TGF-β1 in serum: highly significantly different from the model group (**P<0.01)
Myelofibrosis model mice; mouse serum, vs model group, FIG. 5
  content of TGF-β1 in serum: highly significantly different from the model group (**P<0.01)
Myelofibrosis model mice; peripheral blood
  Hb: 145 ± 17
  MCV: 53 ± 8
  RDW: 28 ± 1
  WBC: 5.79 ± 1.23
